Type in all cases: functional
The subject of test [1] is Bacillus subtilis. In words: Antibacterial activity against Bacillus subtilis isolate 14 harboring 608C-T KsgA mutant and expressing amino acid exchange at S203F in KsgA gene.
The next test relates to Escherichia coli. In words: Antibacterial activity against Escherichia coli BW25113 after 15 hrs. The settings on record: BW25113, 15 h.
Test [2] deals with Bacillus subtilis. The test is described as follows: Antibacterial activity against Bacillus subtilis isolate 13 harboring 393C-G KsgA mutant and expressing amino acid exchange at Tyr 131- stop codon in KsgA gene.
The test system of test [3] is Bacillus subtilis. In words: Antibacterial activity against Bacillus subtilis isolate KO-847 KsgA mutant after 2 days. The following applies: isolate KO-847, 48 h.
The test system of test [4] is Bacillus subtilis. The test is described as follows: Antibacterial activity against Bacillus subtilis isolate KO-877 KsgA mutant and harboring 191A-T speD mutant and expressing amino acid exchange at G64Vin speD gene after 2 days. The following applies: isolate KO-877, 48 h.
Test [5] has as its system Bacillus subtilis. The test is described as follows: Antibacterial activity against Bacillus subtilis isolate 10 harboring 706C-T KsgA mutant and expressing amino acid exchange at R236C in KsgA gene.
Test [6] relates to Bacillus subtilis. The test is described as follows: Antibacterial activity against Bacillus subtilis isolate 18 harboring 495-525 deficient KsgA mutant and expressing amino acid exchange at N165E, Ala 177- stop codon in KsgA gene.
Test [7] relates to Bacillus subtilis. In words: Antibacterial activity against Bacillus subtilis isolate 7 harboring 198T-TT KsgA mutant and expressing amino acid exchange at A67C, Glu 77- stop codon in KsgA gene.
Test [8] relates to Bacillus subtilis. In words: Antibacterial activity against Bacillus subtilis isolate 15 harboring 324C-CTC KsgA mutant and expressing amino acid exchange at K109S, Val 125 - stop codon in KsgA gene.
Test [9] has as its system Bacillus subtilis. In words: Antibacterial activity against Bacillus subtilis isolate KO-894 speD mutant after 2 days. The settings on record: isolate KO-894, 48 h.
For test [10], the system named is Bacillus subtilis. In words: Antibacterial activity against Bacillus subtilis isolate KO-879 KsgA mutant and harboring 236G-T speD mutant and expressing amino acid exchange at S79I in speD gene after 2 days. The following applies: isolate KO-879, 48 h.
The test system of test [11] is Bacillus subtilis. The test is described as follows: Antibacterial activity against Bacillus subtilis isolate 3 harboring 301C-T KsgA and expressing amino acid exchange at Gln101-stop codon in KsgA gene.
Test [12] has as its system Bacillus subtilis. In words: Antibacterial activity against Bacillus subtilis RIK543 after 15 hrs. The settings on record: RIK543, 15 h.
Test [13] concerns Bacillus subtilis. The test is described as follows: Antibacterial activity against Bacillus subtilis isolate 8 harboring 515G-GGG KsgA mutant and expressing amino acid exchange at S173A, Met 188 -stop codon in KsgA gene.
In test [14] the test system is Bacillus subtilis. In words: Antibacterial activity against Bacillus subtilis isolate 19 harboring 230A-G KsgA mutant and expressing amino acid exchange at A61G, E77K in KsgA gene.
Test [15] has as its system Bacillus subtilis. The test is described as follows: Antibacterial activity against Bacillus subtilis isolate KO-875 KsgA mutant and harboring 19G-T speD mutant and expressing amino acid exchange at G7Win speD gene after 2 days. The settings on record: isolate KO-875, 48 h.
Test [16] has as its system Bacillus subtilis. The test is described as follows: Antibacterial activity against Bacillus subtilis isolate 16 harboring 181G-GG KsgA mutant and expressing amino acid exchange at A61G, Glu 77- stop codon in KsgA gene.
Test [17] concerns Bacillus subtilis. In words: Antibacterial activity against Bacillus subtilis isolate 17 harboring 709-850 deficient KsgA mutant and expressing amino acid exchange at K237L in KsgA gene.
For test [18], the system named is Bacillus subtilis. In words: Antibacterial activity against Bacillus subtilis isolate 1 harboring 253-261 deficient KsgA and expressing amino acid exchange at 85-87 Ile, Leu, Lys-deletionin KsgA gene.
For test [19], the system named is Bacillus subtilis. In words: Antibacterial activity against Bacillus subtilis isolate 11 harboring 274-295 deficient KsgA mutant and expressing amino acid exchange at P92F, Thr 97- stop codon in KsgA gene.
Test [20] deals with Bacillus subtilis. The test is described as follows: Antibacterial activity against wild-type Bacillus subtilis 168 after 15 hrs. The following applies: subsp. subtilis str. 168, 15 h.
Test [21] relates to Bacillus subtilis. In words: Antibacterial activity against Bacillus subtilis isolate 12 harboring 597-615 deficient KsgA mutant and expressing amino acid exchange at N200F, Asp 202- stop codon in KsgA gene.
The test system of test [22] is Bacillus subtilis. The test is described as follows: Antibacterial activity against Bacillus subtilis isolate 9 harboring 515G-GG KsgA mutant and expressing amino acid exchange at S173L,Asn 200 -stop codon in KsgA gene.
In test [23] the test system is Bacillus subtilis. In words: Antibacterial activity against Bacillus subtilis isolate 4 harboring 709-850 deficient KsgA and expressing amino acid exchange at K237L in KsgA gene.
Test [24] relates to Bacillus subtilis. In words: Antibacterial activity against Bacillus subtilis isolate 6 harboring 272C-G KsgA mutant and expressing amino acid exchange at Ser 91 -stop codon in KsgA gene.
Test [25] has as its system Bacillus subtilis. In words: Antibacterial activity against Bacillus subtilis isolate 2 harboring 708-717 deficient KsgA and expressing amino acid exchange at K235S, Leu240-stop codon in KsgA gene.
Test [26] has as its system Bacillus subtilis. The test is described as follows: Antibacterial activity against Bacillus subtilis isolate 5 harboring 478-492 deficient KsgA and expressing amino acid exchange at Glu 160, Ala 164 deletion in KsgA gene.
For test [27], the system named is Bacillus subtilis. The test is described as follows: Antibacterial activity against Bacillus subtilis isolate KO-878 KsgA mutant and harboring 193T-A speD mutant and expressing amino acid exchange at S65T in speD gene after 2 days. The following applies: isolate KO-878, 48 h.
Test [28] relates to Bacillus subtilis. The test is described as follows: Antibacterial activity against Bacillus subtilis isolate KO-876 KsgA mutant and harboring 22C-GT speD mutant after 2 days. The settings on record: isolate KO-876, 48 h.

Structures are written as SMILES. Values after ≈ are worked out from the molar mass of the structure shown.

As for `C[C@H]1O[C@H](O[C@H]2[C@H](O)[C@@H](O)[C@@H](O)[C@H](O)[C@@H]2O)[C@@H](N)C[C@@H]1NC(=N)C(=O)O` [KASUGAMYCIN], the MIC stood at 1500 µg/mL (≈ 3.95 mM) with Bacillus subtilis [1]; 200 µg/mL (≈ 0.527 mM) with Escherichia coli; 1500 µg/mL (≈ 3.95 mM) against Bacillus subtilis [2]; 5000 µg/mL (≈ 13.2 mM) in the test with Bacillus subtilis [3]; 15000 µg/mL (≈ 39.5 mM) with Bacillus subtilis [4]; 1500 µg/mL (≈ 3.95 mM) against Bacillus subtilis [5]. The MIC in the test with Bacillus subtilis [6] is 1500 µg/mL (≈ 3.95 mM); against Bacillus subtilis [7], 1500 µg/mL (≈ 3.95 mM); in the test with Bacillus subtilis [8], 1500 µg/mL (≈ 3.95 mM); in the test on Bacillus subtilis [9], 4000 µg/mL (≈ 10.5 mM); against Bacillus subtilis [10] it was 15000 µg/mL (≈ 39.5 mM); in the test with Bacillus subtilis [11], 1500 µg/mL (≈ 3.95 mM). For the same compound, the minimum inhibitory concentration (MIC) was 500 µg/mL (≈ 1.32 mM) against Bacillus subtilis [12]; 1500 µg/mL (≈ 3.95 mM) against Bacillus subtilis [13]; 1500 µg/mL (≈ 3.95 mM) in the test with Bacillus subtilis [14]; 15000 µg/mL (≈ 39.5 mM) in the test on Bacillus subtilis [15]; 1500 µg/mL (≈ 3.95 mM) in the test on Bacillus subtilis [16]; 1500 µg/mL (≈ 3.95 mM) in the test with Bacillus subtilis [17]. Also, the minimum inhibitory concentration (MIC) in the test on Bacillus subtilis [18], against Bacillus subtilis [19], in the test on Bacillus subtilis [20], against Bacillus subtilis [21], against Bacillus subtilis [22] and against Bacillus subtilis [23] was 1500 µg/mL (≈ 3.95 mM) throughout. The minimum inhibitory concentration (MIC) was 1500 µg/mL (≈ 3.95 mM) against Bacillus subtilis [24]; 1500 µg/mL (≈ 3.95 mM) against Bacillus subtilis [25]; 1500 µg/mL (≈ 3.95 mM) with Bacillus subtilis [26]; 15000 µg/mL (≈ 39.5 mM) in the test with Bacillus subtilis [27]; 15000 µg/mL (≈ 39.5 mM) in the test with Bacillus subtilis [28].
As for `CO[C@H]1/C=C/O[C@@]2(C)Oc3c(C)c(O)c4c(O)c(c(/C=N/N5CCN(C)CC5)c(O)c4c3C2=O)NC(=O)/C(C)=C\C=C\[C@H](C)[C@H](O)[C@@H](C)[C@@H](O)[C@@H](C)[C@H](OC(C)=O)[C@@H]1C` [RIFAMPIN], the figures for the MIC in the test with Bacillus subtilis [12] and in the test on Bacillus subtilis [20] were 0.01 µg/mL (≈ 1.22e-05 mM) and 0.1 µg/mL (≈ 0.000122 mM), respectively.
As to `CN[C@@H]1[C@H](O[C@H]2[C@H](O[C@H]3[C@H](O)[C@@H](O)[C@H](N=C(N)N)[C@@H](O)[C@@H]3N=C(N)N)O[C@@H](C)[C@]2(O)C=O)O[C@@H](CO)[C@H](O)[C@H]1O` [STREPTOMYCIN], the figures for the MIC against Bacillus subtilis [12] and in the test with Bacillus subtilis [20] were 5 µg/mL (≈ 0.0086 mM) and 15 µg/mL (≈ 0.0258 mM), respectively.
The matching figures for `C=C(NC(=O)C(=C)NC(=O)c1csc(C2=N[C@@H]3c4csc(n4)[C@H]4NC(=O)c5csc(n5)[C@H]([C@](C)(O)[C@@H](C)O)NC(=O)[C@H]5CSC(=N5)/C(=C/C)NC(=O)[C@H]([C@@H](C)O)NC(=O)c5csc(n5)[C@]3(CC2)NC(=O)[C@H](C)NC(=O)C(=C)NC(=O)[C@H](C)NC(=O)[C@H]([C@@H](C)CC)N[C@@H]2C=Cc3c([C@H](C)O)cc(nc3[C@H]2O)C(=O)O[C@@H]4C)n1)C(N)=O` [THIOSTREPTON]: 0.02 µg/mL (≈ 1.2e-05 mM) and 0.04 µg/mL (≈ 2.4e-05 mM).

For the origin of these results see ChEMBL document CHEMBL1629584, “Inactivation of KsgA, a 16S rRNA methyltransferase, causes vigorous emergence of mutants with high-level kasugamycin resistance” (2009).
